Reference: patent US20070060651A1, “Compositions and methods for improving functional vascular cellular survival integrity and reducing apoptosis in ischemia” (NESTEC S.A., priority 2005, published 2007)

How the values were obtained:
[1] = test system: growth factors and anti-inflammatory proteins; test: Expression of growth factors and anti-inflammatory proteins in dogs on supplemental arginine; type: in vivo, dog; conditions: dietary supplementation
[2] = test system: transient cerebral ischemia in an ovariectomized rat model; test: Ischemic lesion (infarct) volume by TTC staining after transient middle cerebral artery (tMCA) occlusion; type: in vivo; conditions: all rats; vs control diet; 60 min tMCA occlusion, 24 hours reperfusion; FIG. 1
Method: Animals. Female Charles Rivers Sprague-Dawley rats (250 g, Wilmington, Mass.) were acclimatized to animal facilities three days prior to surgery with a 12 hour light-dark cycle. Bilateral ovariectomy was performed 2 weeks before diet feeding began. Four weeks after the start of diet feeding, transient middle cerebral artery (tMCA) occlusion under anesthesia was performed following intraperitoneal (i.p.) injection of ketamine (60 mg/kg) and xylazine (10 mg/kg).
Diet and Hormone Administration. Fourteen to 15 rats per group were randomly assigned to one of five treatment groups. These groups were as follows: […]
All diets were fed ad libitum to the rats for four weeks. […] Also once per week, body weights and food intake were determined. […]
Middle cerebral artery occlusion and samples preparation. […] Rectal temperature was monitored and maintained between 36.5 and 37° C. with a heating pad throughout the procedure. […]
Some animals were eliminated from the study during the protocol. The number of animals quantified for lesion volume ranged from 12 to 15 per group.
Statistical methods. Results were analyzed with one-way analysis of variance (ANOVA) using Prism software(Graphpad Inc; San Diego, Calif.). The significance of differences among groups was determined by one-way ANOVA followed by Tukey's multiple comparison tests. All values were expressed as mean +/−SEM.

[3] = test system: transient cerebral ischemia in an ovariectomized rat model; test: Cerebral ischemia-induced apoptosis by TUNEL staining after tMCA occlusion; type: in vivo; conditions: average of three brain regions, normalized to DAPI total cells; vs control; FIG. 3

Row | Structure (SMILES) | expression of multiple growth factors and anti-inflammatory proteins [1] | effect on infarct size / mean infarct volume (in words) [2] | TUNEL staining / TUNEL-positive cell counts (apoptosis), in words [3]
1 | N=C(N)NCCC[C@H](N)C(=O)O [arginine, L-arginine] | increased expression of multiple growth factors and anti-inflammatory proteins in a dose-dependent manner | – | –
2 | C[C@]12CC[C@@H]3c4ccc(O)cc4CC[C@H]3[C@@H]1CC[C@@H]2O [estradiol, 17 β-estradiol] | – | reduced infarct size | substantial reduction in TUNEL staining
